The values below come from patent US6087358A (priority 1997, dated 2000).

The test system of assay [1] is Mycobacterium bovis (rBCG-lux). The assay is described as follows: microbe, parasite or virus in culture. It is filed as cell-based, Mycobacterium bovis bacille Calmette Guerin. The following applies: Mycobacterium tuberculosis variant bovis, 72 h; read-out: % of control, measured in RLUs.
The test system of assay [2] is Mycobacterium tuberculosis (rMTB). As to the kind of experiment: In vivo antimycobacterial activity against M. tuberculosis (rMTB) in spleens of mice. Conditions: 25 mg/kg daily oral gavage, CM-2, 10 days, control 422,866 (PA-824, 636, 1297) or 362,274 (others). Details: species or system Mycobacterium tuberculosis Erdman, in female BALB/c mice.

In the case of `O=[N+]([O-])c1cn2c(n1)OC[C@@H](OCc1ccc(OC(F)(F)F)cc1)C2` [PA-824, 3S 4-(Trifluromethoxy)benzyloxy-6-nitro-2H-3,4-dihydro-[2-1b]imidazopyran], in assay [1], the activity at 0.15 µg/mL worked out at 29.4%, the activity at 0.31 µg/mL came out at 12.3%, the activity at 0.62 µg/mL was determined as 0.6% and the activity at 1.25 µg/mL was 0.3%. In addition, in assay [1], the activity at 2.5 µg/mL came to 0.2% and the activity at 5 µg/mL was 0.1%. Also, the “Average RLUs, M. tuberculosis (rMTB) in spleens” value in assay [2] is on record as 53,540 RLUs.
